# Source: article PMC4210147, “Sequence-Specific Dimerization of a Transmembrane Helix in Amphipol A8-35” (PLoS ONE, 2014)
# Entries after “also recorded” stand apart in the source; their conditions may differ. No end group written: not given here.
# B1: GpA TM domain peptide (residues 69–101 of human glycophorin A) (peptide)
# peptide: SEPEITLIIFGVMAGVIGTILLISYGIRRLIKK
# modifications: also: N-terminal label: fluorescein or TAMRA
# notes: glycophorin A, human, transmembrane domain, residues 69-101; Self-association is measured by FRET between the FL-labelled and the TAMRA-labelled copy of the same peptide, mixed in equal concentrations (0.25 µM each); both are written as one molecule; also called GpA TM peptide; GpA TM helix; source: synthetic peptide (custom-synthesized, Peptide Specialty Laboratories, Heidelberg)
# Experiments:
# [1] = octylglucoside with A8-35 and other amphipols; ref [13]; cited from earlier work
# [2] = Isothermal titration calorimetry, SDS demicellization in presence of A8-35; assay type: physicochemical; settings: 25°C, 10 mM phosphate, 150 mM NaCl, pH 7.4
# Experimental: ITC experiments were performed on a VP-ITC (GE Healthcare) at 25°C in 10 mM phosphate buffer (150 mM NaCl, pH 7.4). For demicellization experiments, 5-µL aliquots containing both, SDS at a concentration well above its CMC (10-13 mM) as well as A8-35 at concentrations of 5-140 µM, were injected into the sample cell containing the same amphipol concentration but no SDS. Time spans between injections were chosen long enough to allow for complete re-equilibration. Baseline subtraction and peak integration were accomplished using NITPIC [32], and the resulting isotherms were analyzed by nonlinear least-squares fitting in a spreadsheet program.
# Thermal denaturation of MPs often leads to irreversible aggregation of the MP, and guanidine hydrochloride and urea, which are frequently used in unfolding studies involving soluble proteins, do typically not denature the TM regions of MPs. This is why the thermodynamic stability of integral MPs within membrane-mimetic systems is often assessed by titrating increasing concentrations of the anionic detergent SDS to MPs dissolved in a mild detergent, such as DDM [24], [40]-[44]. […] At low APol concentrations, the isotherms thus obtained resembled those measured in SDS demicellization experiments in the absence of APol. […]
# Figure 5 Interactions of SDS with A8-35 monitored by isothermal titration calorimetry. […]
# [3] = target: the molecule itself; assay: FRET or BRET; steady-state FRET of FL- and TAMRA-labelled peptide (0.25 µM each, 0.5 µM total) in Amphipol A8-35 at 5 to 75 µM; 10 mM HEPES pH 7.4, 150 mM NaCl; 25°C; apparent constants; dimer to monomers
# [4] = target: the molecule itself; assay: FRET or BRET; energy transfer at different acceptor mole ratios at constant total peptide concentration, in 5 µM and 50 µM A8-35
# [5] = target: the molecule itself; assay: FRET or BRET; steady-state FRET at 0.5 µM peptide and 20 µM A8-35 (40:1) with increasing SDS added to preformed APol/GpA complexes; 25°C after incubation at 37°C; apparent constants; dimer to monomers
molecule,measurement,setting,value
CCCCCCCCO[C@@H]1O[C@H](CO)[C@@H](O)[C@H](O)[C@H]1O [octylglucoside],mixing behavior with amphipols,[1],nearly ideal mixing behavior
"CCCCCCCCCCCCOS(=O)(=O)[O-].[Na+] [SDS, sodium dodecyl sulfate]",mixing behavior of SDS with A8-35,[2]; qualitative,follows a more complex pattern; also recorded: strongly non-ideal
same,nonideality parameters of SDS/A8-35 mixing,"[2]; regular mixing model, intermediate SDS contents, A8-35 5-140 µM",3–4 RT
B1,Kd,[3],< 300 nM
same,stoichiometry N,[4],2
same,fold increase of KD (SDS exceeding 1.5 mM against no SDS),[5],~10 fold
